Experimental data published in PMC10891539, “Plant Extracts and Phytochemicals from the Asteraceae Family with Antiviral Properties” (Molecules, 2024).
Read-outs that look alike come from different tables or passages of the source.

Legend:
[1] = Cytotoxicity assay (MTT) on Vero cells; format: cell-based; details: African green monkey
Method: (§1) Vero (African green monkey kidney, ATCC CCL-81) cells were grown in Eagle’s minimum essential medium (MEM, Gibco™ Thermo Fisher Scientific, Waltham, MA, USA) supplemented with 5% heat-inactivated newborn bovine serum (NBS, Gibco™ Thermo Fisher Scientific, Carlsbad, CA, USA) and 1.5 g/L of sodium bicarbonate in a 5% CO2 atmosphere. For the maintenance medium (MM), the serum concentration was reduced to 1.5%. The C6/36 HT mosquito cell line from Aedes albopictus (ATCC CRL-1660), adapted to grow at 33 °C, was cultured in L-15 Medium (Leibovitz) supplemented with 0.3% tryptose phosphate broth, 0.02% glutamine, 1% MEM non-essential amino acids solution, and 5% FBS. The original stock of DENV-2 strain NGC was prepared in C6/36 cells and titrated via plaque formation in Vero cells.
Confluent cell monolayers in 96-well plates were exposed for 48 h to serial two-fold compound dilutions, four wells for each concentration, and then viability was tested. The concentration range evaluated for extracts was 1–250 µg/mL, and for pure compounds, it was 1–200 µM or 1–100 µM depending on the phytochemical. […] Cell cultures treated with 0.01% concentration of vehicle (DMSO or methanol) were taken as cell control. Cell viability determinations were performed by the 3-(4,5-dimethylthiazol-2-yl)-2,5-diphenyl tetrazolium bromide (MTT, Sigma-Aldrich, St. Louis, MO, USA) method, adding 10 µL of MM containing MTT reagent (final concentration 0.5 mg/mL) to each well. After 2 h of incubation at 37 °C, the supernatants were removed, 100 µL of ethanol was added per well to solubilize the formazan crystals, and absorbance was measured at 595 nm. Viability values (% respect to cell control): The cytotoxic concentration 50% (CC50) was calculated via non-linear regression using GraphPad Prism (v9.0.) software as the compound concentration required to reduce the MTT signal by 50% compared to cell controls treated with vehicle (DMSO or methanol), and it is presented as the mean ± standard deviation (SD) obtained from three independent experiments.

[2] = system: DENV-2; test: Antiviral activity, virus yield inhibition assay (plaque assay) against DENV-2 in Vero cells; format: cell-based, dengue virus (DENV-2 strain NGC); details: for activity against DENV-2 (in words): DENV-2 in Vero cells
Method: Figure 3 Antiviral activity of dichloromethane (A) and methanolic extracts (B) and against DENV-2 in Vero cells. Cells were infected with DENV-2 (m.o.i. 0.1 PFU/cell) and, after 1 h adsorption at 37 °C, were treated with medium containing different dilutions of the dichloromethane extracts or vehicle. After 48h of infection, viral yield was determined via plaque assay. […] Results are expressed as the mean values ± standard deviation (SD).
Figure 4 Antiviral activity of pure compounds against DENV-2 in Vero cells. Cells were infected with DENV-2 (m.o.i. 0.1 PFU/cell) and, after 1 h adsorption at 37 °C, were treated with medium containing different dilutions of the pure compounds or vehicle (dimethyl sulfoxide). After 48 h of infection, viral yield was determined via plaque assay. Results are expressed as the mean values ± standard deviation (SD).
as §1
Antiviral activity was evaluated with a virus yield inhibition assay. Cells grown in 24-well microplates were infected with DENV-2 at a multiplicity of infection (m.o.i.) of 0.1 PFU/cell, and after 1 h adsorption at 37 °C, the unadsorbed virus was removed by washing with PBS and refed with MM containing different two-fold dilutions of each compound or vehicle (DMSO or methanol). […] The concentration of the solvent used for the control was the maximum present in the highest concentration of the extract or compound evaluated. After 48 h of infection, supernatants were collected and cooled down, and serial dilutions were prepared to infect Vero cell monolayers to measure virus yield via the PFU method. After viral adsorption for 1 h at 37 °C, the virus excess was removed; MM supplemented with 0.7% methylcellulose was added and cells were incubated for 1 week at 37 °C in a 5% CO2 incubator. Finally, cell monolayers were fixed with 10% formaldehyde, washed, and stained with a 1% solution of crystal violet, and PFU were counted. Inhibition values (% respect to viral control): The effective concentration 50% (EC50), as the concentration required to reduce virus yield by 50% in the compound-treated cultures, was calculated via non-linear regression using GraphPad Prism (v9.0) software, compared with viral control treated with vehicle (DMSO or methanol), and presented as the mean ± SD obtained from three independent experiments.

[3] = system: human cancer cell lines; parameters: method as in PMID 32805622; details: cited from earlier work
[4] = pure phytochemicals, Vero cells, 48 h, MTT, mean of three determinations ± SD, read-out: CC50
[5] = Vero cells (confluent monolayers), pure phytochemicals, Vero cells, 48 h, MTT, mean of three determinations ± SD, read-out: CC50
[6] = Dengue virus, DENV2, Vero, 48 h, pure phytochemicals, concentration reducing DENV-2 yield by 50%, Vero cells, m.o.i. 0.1, 48 h, mean of three ± SD
[7] = pure phytochemicals, concentration reducing DENV-2 yield by 50%, Vero cells, m.o.i. 0.1, 48 h, mean of three ± SD

Row | Compound | CC50 at 48 h [1, 5] | EC50 [2, 6] | further results
1 | C=C1C(=O)O[C@H]2C[C@]3(C)O[C@@H]3[C@@H]3O[C@@H]3C3=C[C@@H](OC3=O)[C@H]12 [Compound 1, mikanolide] |  |  | CC50 [1]: 6.69 ± 0.49 µM; EC50 ([2]; Dengue virus, DENV2, Vero, 48 h): > 2 µM
2 | C=C1C(=O)O[C@@H]2/C=C(\C)CC/C=C(\C)C[C@@H](OC(=O)/C(=C/CO)CO)[C@@H]12 [Compound 2, eupatoriopicrin] |  |  | CC50 [1, 4]: 10.8 ± 0.88 µM; EC50 ([2]; Dengue virus, DENV2, pure phytochemicals, concentration reducing DENV-2 yield by 50%, Vero cells, m.o.i. 0.1, 48 h, mean of three ± SD, read-out: EC50): > 2 µM
3 | C=C1C(=O)O[C@@H]2[C@H]3C(C)=CC[C@H]3C(=C)C[C@@H](OC(=O)/C(=C/CO)CO)[C@@H]12 [Compound 3, eupahakonenin B] | 11.2 ± 0.36 µM | > 2 µM | 
4 | C=C1C(=O)O[C@@H]2/C=C(\CO)CC/C=C(\COC(C)=O)C[C@H](OC(C)=O)[C@@H]12 [Compound 4, minimolide] | 10.6 ± 0.55 µM | > 2 µM | 
5 | C=C1C(=O)OC2C1CCC(=C)C1CC3OC3(C)C12 (centres unmarked) [Compound 5, estafietin] | 23.5 ± 0.99 µM | > 2 µM | 
6 | C=C1CC[C@H]2C(=C)C(=O)O[C@@H]2[C@H]2C(C)=CC(=O)[C@@H]12 [Compound 6, 2-oxo-8-deoxyligustrin] | 21.8 ± 4.15 µM | 3.7 µM | EC50 [2, 7]: 3.72 ± 0.28 µM
7 | C=C1C(=O)O[C@@H]2/C=C(\C)[C@@H](O)C/C=C(\C)C[C@@H](OC(=O)/C(=C/CO)COC(C)=O)[C@@H]12 [Compound 7, santhemoidin C] | 21 ± 3.65 µM | 3.1 µM | EC50 [2, 7]: 3.12 ± 1.39 µM
8 | C=C(C)c1cc2cc(C(C)=O)c(O)cc2o1 [Compound 8, euparin] |  | 6.8 µM | CC50 at 48 h [1, 4]: > 500 µM; EC50 [2, 7]: 6.81 ± 0.2 µM
9 | COc1cc(-c2oc3cc(O)c(OC)c(O)c3c(=O)c2OC)ccc1O [Compound 9, jaceidin] | > 100 µM | > 2 µM | 
10 | COc1c(O)cc2oc(-c3ccc(O)c(O)c3)cc(=O)c2c1O [Compound 10, nepetin] |  | > 2 µM | CC50 at 48 h [1]: > 100 µM; activity against DENV-2 (in words) [2]: inactive
11 | COc1cc(-c2cc(=O)c3c(O)c(OC)c(O)cc3o2)ccc1O [Compound 11, jaceosidin] | > 100 µM | > 2 µM | activity against DENV-2 (in words) [2]: inactive
12 | O=C1C[C@@H](c2ccc(O)c(O)c2)Oc2cc(O)cc(O)c21 [Compound 12, eryodictiol] | > 100 µM | > 2 µM | 
13 | COc1ccc(-c2cc(=O)c3c(O)c(OC)c(OC)cc3o2)cc1O [Compound 13, eupatorin] |  | > 2 µM | CC50 [1, 4]: > 200 µM
14 | COc1ccc(-c2cc(=O)c3c(O)c(OC)c(OC)cc3o2)cc1OC [Compound 14, 5-demethylsinensetin] | 184 ± 27.8 µM | > 2 µM | 
15 | macrocephalide A |  |  | 50% cell growth inhibitions [3]: 0.576 µM
16 | macrocephalide B |  |  | 50% cell growth inhibitions [3]: 6.37 µM
